The text below walks through data of patent US9486471B2, “Combination therapy for the treatment of cancer” (McMaster University, priority 2012, dated 2016).

The test system of data set [1] is HL-60, MV4-11 and OCI-AML3 leukemic cell lines. Kind of data set: Normalized cell number of leukemic cell lines after 72 h incubation (Examples 1, 3). The data set is classed as cell-based, human. As to the method:
All three lines are leukemic cell lines. […] Each condition had three replicates.
The dopamine receptor antagonist and phenothiazine-related compound chlorpromazine was also investigated for effects on the AML cell lines HL-60, MV4-11 and OCI-AML3. Testing was performed as set out in Example 1.

The test system of data set [2] is AML cell lines HL-60, OCI-AML2 and OCI-AML3. As to the method: All three lines are leukemic cell lines. HL-60 was derived from promyelocytic AML whereas MV 4-11 and OCI-AML3 are representative of AML. Each compound was incubated with the cells for 72 h. The control was DMSO (ie the vehicle used for the compound) for 72 h. Each condition had three replicates.
A series of dopamine receptor agonists, D3-antagonists, DR1 & 5-antagonists and multi-receptor antagonists were tested for cytotoxicity against three AML cell lines HL-60, OCI-AML2 and OCI-AML3. Testing was performed as set out in Example 1.

Data set [3] relates to CD14+ cells in primary AML. Kind of data set: Flow cytometry frequency of CD14+ cells in primary AML. Format: cell-based, human. Particulars: 10 μM, 72 h; control 100%.
Data set [4] has as its system v1H9-Oct4-GFP neoplastic hPSC. Kind of data set: Chemical screening of neoplastic hPSC reporter line (GFP / Hoechst, loss of pluripotency). The data set is classed as cell-based, human. As to the method:
In Vitro Culture Platform for Normal and Neoplastic hPSCs. Chemical screens involved v1H9-Oct4-GFP cells seeded at 5,000 cells per well in mouse embryonic fibroblast conditioned media (MEFCM) supplemented with 8 ng/ml bFGF. 24 hours later the media was exchanged for MEFCM with compounds at 10 μM and 0.1% DMSO, 0.1% DMSO (−BMP4) or 100 ng/ml of BMP4 and 0.1% DMSO (+BMP4) for 48 hours before being exchanged with fresh media with compound for a further 24 h (total compound treatment time 72 h) prior to being fixed and prepared for automated imaging and plate reader analysis. Confluent H9 & fibroblast-derived iPSC were seeded at 10,000 cells per well in MEFCM supplemented with 8 ng/ml bFGF. 24 hours later the cells were treated with compounds at 10 μM and 0.1% DMSO, 0.1% DMSO (−BMP4) or 100 ng/ml of BMP4 and 0.1% DMSO (+BMP4). Fresh MEFCM supplemented with compounds was exchanged daily for 5 days. On day 5, hPSC's were fixed and prepared for automated imaging and plate reader analysis. See supplementary experimental procedures for further details.
Imaging Neoplastic hPSC. Cells were fixed in 2% paraformaldehyde and stained with 10 μg/mL Hoechst 33342 (Invitrogen) with a Combi Multidrop Dispenser (Thermo). For experiments that involved Oct4 immunocytochemistry, a monoclonal antibody for Oct4 (BD) was used along with an Alexa-Fluor-647 secondary (Invitrogen). Immunocytochemical staining was performed by a Janus automated liquid handler (Perkin Elmer). Images were acquired at 10× N.A with an Arrayscan HCS VTI Reader (Cellomics) by means of epi-fluorescence illumination and standard filter sets.
Image Analysis. Image analysis was performed using custom scripts in Acapella software (Perkin Elmer). Nuclear objects were segmented from the Hoechst signal. For neoplastic cell lines, object intensity analysis was performed on GFP positive cells only. For normal cell lines, the fraction of Alexa-Fluor-647-positive cells was quantified. Images and well-level data were stored and analysed in a Columbus Database (Perkin Elmer) and further data analysis, compounds registration and hit identification in ActivityBase (IDBS).
These Collections have been previously scrutinized in numerous other mammalian cell lines (Diallo et al., 2010; Shoemaker, 2006).

The test system of data set [5] is neoplastic hPSCs (v1H9-Oct4-GFP). Kind of data set: Flow cytometry of Oct4 in neoplastic hPSCs. Format: cell-based, human.
The test system of data set [6] is hematopoietic stem and progenitor cells (HSPC, CB lin-). Kind of data set: Methylcellulose colony-forming assay, HSPC (CB lin-). The settings on record: 24 h treatment, colonies scored after 14 days. As to the method:
AML/HPSC Cell Culture. AML cell lines, namely, OCI-AML2 (M4), OCI-AML3 (M4), HL-60 (M2) and MV-4-11(M5) were cultured in RPMI (Gibco) supplemented with 5% heated-inactivated FBS (HyClone). For DR agonist studies with R(+)-7-Hydroxy-DPAT hydrobromide (Sigma), serum-free conditions were employed instead due to the prevalence of dopamine in FBS (Little et al., 2002). AML patient blasts were cultured in IMDM supplemented with 5% heated inactivated FBS (HyClone), 5 ng/mL IL3 (R&D systems), 5×10^−5 M β-mercaptoethanol (Sigma) and BIT (StemCell Technologies). HSC media contained IMDM supplemented with 1% BSA (Sigma), 100 ng/mL SCF (R&D systems), 100 ng/mL Flt-3L (R&D systems) and 20 ng/mL TPO (R&D systems). Patient HSPC and AML samples were treated with compound or DMSO-vehicle (0.1%) for 24 h prior to CFU plating or xenotransplantation studies.
Methylcellulose Colony-Forming Assay. AML patient or CB lin− cells were cultured 24 hours in the presence of compound or DMSO-vehicle (0.1%) control. AML cells were plated at 50 000 cells/mL in Methocult GF H4434 (Stem Cell Technologies). CB lin− cells were plated at 1000 cells/mL in Methocult GF H4434 (Stem Cell Technologies). Colonies were scored after 14 days of culture using standard morphological criteria.

Data set [7] has as its system AML-OCI2 and AML-OCI3 cell lines. Kind of data set: Volumetric cell counting of AML cell lines treated with DR antagonists and agonists. The data set is classed as cell-based, human. Particulars: 72 h, serum-free conditions.
Method: Volumetric Cell Counting. The number of AML-OCI2 and AML-OCI3 cells present after 72 h treatment with DR antagonists (FIG. 16b) and agonist (FIG. 16c-d) were counted by measuring the number of events within a fixed volume following the grating strategy defined by forward scatter and side scatter clustering, 7AAD− and Hoechst+.
Due to the bioavailability of dopamine in fetal bovine serum (FBS) (Little et al., 2002), serum-free conditions were employed to assess the role of DRs in AML.

Turning to `CSc1ccc2c(c1)N(CCC1CCCCN1C)c1ccccc1S2` (racemic) [thioridazine, 10-{2-[(RS)-1-Methylpiperidin-2-yl]ethyl}-2-methylsulfanylphenothiazine], the normalized cell number entry in data set [1] (0.1 μM) is on record as “little effect”. Moreover, the normalized cell number entry in data set [1] (1 μM) is reported as “little effect”. In addition, in data set [1] (10 μM), the “normalized cell number / toxicity” value is listed as “reduced to almost zero”. Further, the “cytotoxicity of AML cell lines” value in data set [2] is “significant effect”. Further, the cell count entry in data set [2] (72 h, relative to control) was “eradicate the AML cell lines”. For the same compound, the “normalized frequency of CD14+ cells” value in data set [3] is 20%. The “hit in extended screen (loss of pluripotency)” value in data set [4] (2446 compound screen, reduced mean GFP intensity and cell count) is on record as “hits”. In addition, the activity at 10 µM in data set [4] (Homo sapiens, 10 μM, 590 compound screen, read-out: Hoechst % residual activity (% RA)) is above 30%. Besides, in data set [5], the cell number entry is “reductions” and the “levels of Oct4” value is “reductions”. Besides, in data set [6], the HSPC multilineage differentiation result was “retaining”. Also, in data set [7], the “number of AML cells” value is on record as “reduced the number of AML cells”.
